The results in this text go back to ChEMBL document CHEMBL5321259, “Synthesis and structure-activity relationship studies of naphthoquinones as STAT3 inhibitors” (Bioorg Med Chem, 2023).

Activity calls are given as the source filed them. The rule behind the calls is not given here.

Experiment [1] relates to A549. The experiment can be described thus: Antiproliferative activity against human A549 cells assessed as inhibition of cell growth measured after 72 hrs by WST-8 method. In kind it is functional, cell-based. The following applies: A549, 72 h.
The next experiment has as its system MDA-MB-231. The experiment can be described thus: Antiproliferative activity against human MDA-MB-231 cells assessed as inhibition of cell growth measured after 72 hrs by WST-8 method. It is filed as functional, cell-based. As to conditions: MDA-MB-231, 72 h.
In experiment [2] the target is Signal transducer and activator of transcription 3 (Homo sapiens) (UniProt P40763). The experiment can be described thus: Inhibition of STAT3 phosphorylation in human A549 cells assessed as decrease in IL-6 stimulated STAT3 phosphorylation at 0.5 to 3 uM preincubated for 1 hr followed by IL-6 stimulation and measured after 1 hrs by Western blot analysis. It is filed as cell-based. As to conditions: dose 0.5-3 µM, time 2.0 hrs.
Sequence of Signal transducer and activator of transcription 3 (Homo sapiens) (P40763 whole entry): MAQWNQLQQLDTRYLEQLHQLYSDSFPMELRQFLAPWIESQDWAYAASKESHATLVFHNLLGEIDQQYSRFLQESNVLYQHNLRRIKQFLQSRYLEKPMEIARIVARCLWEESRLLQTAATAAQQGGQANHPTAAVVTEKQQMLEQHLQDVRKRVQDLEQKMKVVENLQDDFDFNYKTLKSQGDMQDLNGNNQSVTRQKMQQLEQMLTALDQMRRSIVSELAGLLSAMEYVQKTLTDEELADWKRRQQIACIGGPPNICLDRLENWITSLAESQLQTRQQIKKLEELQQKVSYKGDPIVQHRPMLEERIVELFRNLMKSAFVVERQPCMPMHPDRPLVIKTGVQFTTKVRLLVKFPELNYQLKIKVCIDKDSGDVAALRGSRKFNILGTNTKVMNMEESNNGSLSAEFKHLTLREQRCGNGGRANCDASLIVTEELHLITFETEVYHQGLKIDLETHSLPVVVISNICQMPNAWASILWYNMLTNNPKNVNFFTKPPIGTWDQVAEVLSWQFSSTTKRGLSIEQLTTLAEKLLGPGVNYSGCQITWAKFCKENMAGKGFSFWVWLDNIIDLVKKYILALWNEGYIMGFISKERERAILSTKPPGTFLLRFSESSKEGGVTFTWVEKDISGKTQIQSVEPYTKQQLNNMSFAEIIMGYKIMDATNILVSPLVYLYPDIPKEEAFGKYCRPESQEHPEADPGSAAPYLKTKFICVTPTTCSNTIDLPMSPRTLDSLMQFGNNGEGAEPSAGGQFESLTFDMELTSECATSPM

The subject of experiment [3] is A549. The experiment can be described thus: Antiproliferative activity against human A549 cells measured after 24 hrs by MTT assay. In kind it is functional, cell-based. As to conditions: A549, 24 h.
The target of experiment [4] is Signal transducer and activator of transcription 3 (Homo sapiens) (UniProt P40763). Description: Inhibition of IL-6 stimulated STAT3 phosphorylation in human A549 cells at <0.1 uM preincubated for 1 hr followed by IL-6 stimulation and measured after 1 hrs by Western blot analysis relative to control. In kind it is cell-based. The following applies: time 2.0 hrs.
For experiment [5] the target is unchanged. The experiment can be described thus: Inhibition of IL-6 stimulated STAT3 phosphorylation in human A549 cells at 10 uM preincubated for 1 hr followed by IL-6 stimulation and measured after 1 hrs by Western blot analysis. It is filed as cell-based. The following applies: time 2.0 hrs.

For the compound `CC(O)c1cc2c(o1)C(=O)c1cccc(S(=O)(=O)N(C)C)c1C2=O` (configuration not stated), the IC50 with A549 [1] was determined as 1.2 µM; in the experiment on MDA-MB-231 it was 0.77 µM. Further, the inhibition result in experiment [2] was “Active”.

For `CC(=O)c1cc2c(o1)-c1ccccc1C(=O)C2=O`, the IC50 in the experiment on A549 [1] amounted to 1.7 µM; in the experiment with MDA-MB-231, 1.5 µM. In addition, in experiment [2], the inhibition entry was “Active”.

`O=C1C(Nc2ccccc2N2CCNCC2)=CC2=NS(=O)(=O)c3cccc1c32` came in with an IC50 with A549 [3] of at most 4.66 µM.

Take `CC(=O)c1cc2c(o1)C(=O)c1ccc(S(N)(=O)=O)cc1C2=O`: the figures for the 50% inhibitory concentration (IC50) in the experiment with A549 [1] and in the experiment with MDA-MB-231 were 0.14 µM and 0.11 µM, respectively.

For the compound `CC(=O)c1cc2c(o1)-c1cccc(O)c1C(=O)C2=O`, the 50% inhibitory concentration (IC50) came to 0.62 µM in the experiment with A549 [1] and 1.4 µM in the experiment with MDA-MB-231. Further, the inhibition result in experiment [2] was “Active”. Besides, the inhibition in experiment [4] came to 100%.

With `C[C@H](O)c1cc2c(o1)-c1cccc(O)c1C(=O)C2=O`, the IC50 with A549 [1] is 0.39 µM; in the experiment with MDA-MB-231, 2.4 µM. Besides, in experiment [2], the inhibition entry is “Active”. The inhibition in experiment [4] was 100%.

As for `CC(=O)c1cc2c(o1)C(=O)c1cccc3c1C2=NS3(=O)=O`, the IC50 stood at 0.054 µM with A549 [1] and 0.089 µM in the experiment with MDA-MB-231. In experiment [2], the inhibition result was “Active”. In experiment [4], this compound showed an inhibition of 100%.

Turning to `CC(O)c1cc2c(o1)C(=O)c1ccc(S(N)(=O)=O)cc1C2=O` (configuration not stated), the results for the 50% inhibitory concentration (IC50) with A549 [1] and in the experiment with MDA-MB-231 were 0.49 µM and 0.31 µM, respectively.

Regarding `CC(O)c1cc2c(o1)C(=O)c1cccc3c1C2=NS3(=O)=O` (configuration not stated), the IC50 in the experiment with A549 [1] is 0.034 µM; in the experiment with MDA-MB-231, 0.049 µM. In addition, the inhibition entry in experiment [2] was “Active”. In addition, the inhibition in experiment [4] worked out at 100%.

As to `CC1(C)CCC2=C(O1)c1cccc(O)c1C(=O)C2=O`, the IC50 in the experiment on A549 [1] stood at 0.63 µM; in the experiment on MDA-MB-231 it was 1.4 µM. Further, in experiment [5], the inhibition entry is “inactive”.

As for `C[C@H](O)c1cc2c(o1)C(=O)c1cccc(O)c1C2=O`, the IC50 is 0.16 µM in the experiment on A549 [1] and 0.35 µM with MDA-MB-231.
